Laboratory results from patent publication US20100248229A1, “INVITRO HUMAN EMBRYONIC MODEL AND A METHOD THEREOF” (Stempeutics Research Private Limited, priority 2007, published 2010).
Entries after “also recorded” stand apart in the source; their conditions may differ.

How the values were obtained:
hESCs (EB formation) = experiment: Effect on the formation of EBs from hESCs; type: cell-based, human; settings: 10 pg/ml and above
Procedure: Human Embryonic Stem Cells (hESCs) cultured on feeder cells of mouse or human origin, or cultured in feeder free conditions were exposed to several different dilutions of the drug for 6 days and subjected to Embryoid Body (EB) formation on non adherent plates, in presence of the drug for another 4 days. The control set was free from any extraneous addition of drugs. The formation of normal EBs in the control was evaluated by testing the expression of all the germ lineage, pluripotency and epigenomic markers as given in table Nos. 1-7 by RT-PCR, Flow Cytometry and Immunofluorescence. Alteration in the expression profiles of these genes in the treated EBs indicated a detrimental effect on embryonic development. A failure to form nicely cavitating EBs, as observed under the microscope, or a delay in the formation of the EBs as compared to the control indicated a possible embryo toxic effect of the drug.
The effect of molecules/compounds was screened. The compound, such as Rho Kinases inhibitor Y27632, 5-Azacytidine, and gram negative bacterial endotoxin lipopolysaccharide (LPS) on the formation of EBs from hESCs were screened for their toxic activity. LPS is known to be involved in genital tract infection related pathogenesis and pregnancy losses.

[1] = system: EBs derived from hESC line HUES9; experiment: RT-PCR of germ lineage markers and HMGB1 in LPS-exposed HUES9 EBs; type: cell-based, human
Text: EBs derived from the human embryonic stem cell (hESC) line HUES9 were exposed to 12.5 pg/ml of LPS for 48 hrs. The expression profile of the ectoderm, endoderm, mesoderm and trophectoderm lineage markers like βIII-tubulin, GATA4, BMP2, Brachury and β-hCG were studied, by RT-PCR and Immunofluorescence. Inhibition of mesoderm induction was confirmed by RT-PCR analysis for hANP, cTnT, ABCG2, GATA2, BMP4 and HAND1. Osteoblast differentiation was induced in the EBs, and confirmed by von Kosa and Alizarin red staining. A comet assay was also done to assess the degree of apoptosis in these EBs.
Exposure of EBs to LPS: EBs at day-2.5 were exposed to 12.5 pg/ml of Endotoxin/lipopolysaccharide (LPS) (Sigma) for 48 hrs supplemented in culture medium. The normal and the endotoxin treated EBs were harvested on day 4.5. Post exposure, the control and endotoxin treated EBs were divided in two groups. One group was lysed in TRIZOL for RNA isolation and the other group was fixed in 4% paraformaldehyde for immunofluorescence. The expression profile of the ectoderm, endoderm, mesoderm and trophectoderm lineage markers like PHI-tubulin, GATA4, BMP2, Brachury and β-hCG etc. were studied by RT-PCR and Immunofluorescence. The expression of the LPS-inducible and pluripotency related DNA binding protein HMGB1 was also studied in both the control and treated EBs.
(§1) RT-PCR: Total RNA from cells was isolated using TRIZOL-LS Reagent (Invitrogen) as per the manufacturer's protocol. Complementary DNA was synthesized using the SuperScript III First-Strand Synthesis System (Invitrogen) as per the manufacturer's instructions. Polymerase Chain Reaction (PCR) was carried out using 1U Tag DNA Polymerase (Sigma) and MgCl2 to a final concentration of 1.5 mM in a total volume of 25 μl/reaction. β-actin and GAPDH were used as the housekeeping controls. PCR cycles consisted of an initial denaturation at 95° C. for 5 minutes followed by 35 amplification cycles of denaturation at 94° C. for 45 seconds, annealing for 45 seconds, and extension at 72° C. for 45 seconds and final extension at 72° C. for 10 minutes.

[2] = system: EBs derived from hESC line HUES9; experiment: Cell counting: DAPI stained nuclei per EB; type: cell-based, human; settings: 12.5 pg/ml for 48 hrs
Procedure: Immunofluorescence and Cell counting: HESCs were grown on coverslips coated with MEFs and then fixed with 4% paraformaldehyde and 5% sucrose (Sigma) followed by permeabilization in 0.2% Triton X100 (Sigma). The slides were then incubated with primary antibodies 1:500 dilution of SSEA4 (Chemicon, Calif., USA), 5 ug/ml Nanog (Santa Cruz Biotechnology, CA, USA), 10 μg/ml Brachury (R&D Systems Inc. Minneapolis, USA), and 1.5 μg/ml HMGB1 (Sigma) overnight at 4° C. After washing thrice with PBS, fluorescein isothiocyanate/Texas red-labeled Secondary antibodies against the primary goat/rabbit/mouse were added as 1:500 dilutions and incubated for 2 hours. DAPI (Sigma) was used for nuclear staining and then washed with PBS. The negative controls were done without primary antibodies. Slides were mounted with DABCC (Sigma) and images were acquired using Nikon Eclipse 90i microscope (Nikon Corporation, Japan) and Image-Pro Express software (Media Cybernetics, Inc, Silver Spring, Md.). The results were then compared with the control cells (non-LPS treated EBs). To count the number of cells per EB, the number of DAPI stained nuclei were counted in 10 each of the control and LPS treated EBs.
Cell numbers and DNA fragmentation: For a count of the average number of cells per EB, the DAPI stained nuclei were counted in individual control and LPS treated EBs under epifluorescence. […]

HUES 9 EB = experiment: Expression profiles of lineage, pluripotency, epigenetic and imprinted genes in day 4.5 spherical EBs (HUES 9); type: cell-based, human; parameters: key: The sign ‘+’ indicates expression of the gene; the sign “−” indicates non-expression of the gene; settings: HUES 9 EB D4.5 LPS
Procedure: as §1
Examples of changes in the expression profiles/patterns of lineage markers, pluripotency markers, epigenetic markers and imprinted genes, in day 4.5 spherical cavitating/cytic embryoid bodies upon exposure to compounds like lipopolysaccharide (LPS), Rho kinase inhibitor (Y27632), Azacytidine (Aza), and biologicals like an Uvomorulin antibody (UVO) are given in the table nos. 9-12 below. The sign ‘+’ indicates expression of the gene and the sign “−” indicates non-expression of the gene.

[3] = system: hematopoietic precursor cells; settings: report [21]; cited from earlier work
[4] = 12.5 pg/ml for 48 hrs, EBs harvested day 4.5

Substance: lipopolysaccharide [LPS]
- EB formation from hESCs (hESCs (EB formation)): complete inhibition of EB formation
- expression of mesoderm markers (Brachury, BMP2, hANP, cTnT, ABCG2, GATA2, BMP4, HAND1) ([1]; 12.5 pg/ml for 48 hrs): no expression; also recorded: selectively silenced; also recorded: specific silencing
- mRNA expression of HMGB1, βIII-tubulin, GATA4 and β-hCG [1, 4]: positive mRNA expression
- mRNA expression of mesoderm markers BMP4, GATA2, ABCG2, cTnT, hANP and HAND1 [1, 4]: absence of mRNA expressions
- mRNA expression of mesoderm markers Brachury and BMP2 [1, 4]: no mRNA expressions
- HMGB1 expression in EBs ([1]; 12.5 pg/ml for 48 hrs, not expressed in normal EBs): positive or induced expression; also recorded: induced
- functional mesoderm formation in EBs ([1]; exposure for 48 hrs): inhibited
- average number of cells per EB, treated vs control [2]: not significantly different
- average number of cells/EB (mean±SD) ([2]; control 142.33±48.41): 175±75.47 cells/EB
- ABCG2 gene expression (HUES 9 EB; control +): −
- BMP4 gene expression (HUES 9 EB; control +): −
- BRACHURY gene expression (HUES 9 EB; control +): −
- CDH1 gene expression (HUES 9 EB; control +): −
- Dlk1 gene expression (HUES 9 EB; control +): −
- GATA2 gene expression (HUES 9 EB; control +): −
- HAND1 gene expression (HUES 9 EB; control +): −
- SDHD gene expression (HUES 9 EB; control +): −
- cTNT gene expression (HUES 9 EB; control +): −
- hANP gene expression (HUES 9 EB; control +): −
- DPYS gene expression (HUES 9 EB; control −): +
- HMGB1 gene expression (HUES 9 EB; control −): +
- concentration enough to cause alterations in the proliferation of hematopoietic precursor cells in culture [3]: 2 to 5 pg/mL
